In ChEMBL document CHEMBL1151067, “Stereoselectivity in the hydrolysis of synthetic esters by cultured cancer cells and normal tissue extracts of rat” (1994):

Assays:
CCRF S-180 [1] = experiment: Stereoselectivity in enzymic hydrolysis by mouse sarcoma S180 cells; assay type: functional
MIA PaCa-2 = experiment: Stereoselectivity in enzymic hydrolysis by human cancer MIA PaCa-2 (pancreatic carcinoma) cells; assay type: functional
Rattus norvegicus [2] = species: Rattus norvegicus; experiment: Stereoselectivity in enzymic hydrolysis by normal rat liver extracts; assay type: functional
Rattus norvegicus [3] = species: Rattus norvegicus; experiment: Stereoselectivity in enzymic hydrolysis by normal rat pancreas extracts; assay type: functional
IA-XsSBR cell line = experiment: Stereoselectivity in enzymic hydrolysis by rat cancer IA-XsSBR cells; assay type: functional
XC = experiment: Stereoselectivity in enzymic hydrolysis by rat cancer XC cells; assay type: functional
Rattus norvegicus [4] = species: Rattus norvegicus; experiment: Stereoselectivity in enzymic hydrolysis by normal rat muscle extracts; assay type: functional, Muscle tissue
Anr4 = experiment: Stereoselectivity in enzymic hydrolysis by rat cancer Anr4 cells; assay type: functional
NRK-49F = experiment: Stereoselectivity in enzymic hydrolysis by rat cancer NRK49F cells; assay type: functional
Rattus norvegicus [5] = species: Rattus norvegicus; experiment: Stereoselectivity in enzymic hydrolysis by normal rat intestine extracts; assay type: functional
ARIP cell line = experiment: Stereoselectivity in enzymic hydrolysis by rat cancer ARIP cells; assay type: functional
Rattus norvegicus [6] = species: Rattus norvegicus; experiment: Stereoselectivity in enzymic hydrolysis by normal rat kidney extracts; assay type: functional
U-937 = experiment: Stereoselectivity in enzymic hydrolysis by human cancer U937 (histiocytic lymphoma) cells; assay type: functional
COLO 320 = experiment: Stereoselectivity in enzymic hydrolysis by human cancer COLO 320 (colon adenocarcinoma) cells; assay type: functional
CCRF S-180 [7] = experiment: Stereoselectivity in enzymic hydrolysis of compound by mouse sarcoma S180 cells; assay type: functional

SMILES | Conversion rate (CCRF S-180 [1]) [%] | Conversion rate (MIA PaCa-2) [%] | Conversion rate (Rattus norvegicus [2]) [%] | Conversion rate (Rattus norvegicus [3]) [%] | Conversion rate (IA-XsSBR cell line) [%] | Conversion rate (XC) [%] | Conversion rate (Rattus norvegicus [4]) [%] | Conversion rate (Anr4) [%] | Conversion rate (NRK-49F) [%] | Conversion rate (Rattus norvegicus [5]) [%] | Conversion rate (ARIP cell line) [%] | Conversion rate (Rattus norvegicus [6]) [%] | Conversion rate (U-937) [%] | Conversion rate (COLO 320) [%] | Conversion rate (CCRF S-180 [7]) [%]
CCOC(=O)C(O)c1ccccc1 (stereo not drawn) | 21.2 |  |  |  |  |  |  |  |  |  |  |  |  |  | 
CCCCCCCCOC(=O)C(C)c1ccccc1 (stereo not drawn) | 11 |  |  |  |  |  |  |  |  |  |  |  |  |  | 
CCOC(=O)C(C)Oc1ccccc1 (stereo not drawn) | 38.9 | 35.9 | 52.5 | 33.3 | 12.2 | 23 | 18 | 14.2 | 4.5 | 5 | 5.7 | 53 |  |  | 
CC(C(=O)OCCC1CCCCC1)c1ccccc1 (stereo not drawn) | 6.1 |  |  |  |  |  |  |  |  |  |  |  |  |  | 
CCOC(=O)C(Cc1ccccc1)NC(C)=O (stereo not drawn) | 12.9 | 42 | 48.2 | 43.8 | 30.5 | 42 | 31.9 | 30.6 | 35.1 | 37.3 | 37.2 | 23.2 | 17.5 | 13.8 | 
CCOC(=O)C(NC(C)=O)c1ccccc1 (stereo not drawn) | 4.3 |  |  |  |  |  |  |  |  |  |  |  |  |  | 
CCOC(=O)C(NC=O)c1ccccc1 (stereo not drawn) | 3.6 |  | 2.7 | 14.3 | 1.3 | 1.2 | 5.9 | 1.2 | 2.2 | 1.4 | 1.6 | 7.6 | 3.5 | 3.8 | 
CCOC(=O)C(OC)c1ccccc1 (stereo not drawn) | 4.3 |  |  |  |  |  |  |  |  |  |  |  |  |  | 
CCOC(=O)C(C)c1ccccc1 (stereo not drawn) |  | 11.9 | 11.5 | 1.2 | 1.4 | 0.6 | 1 | 0.5 | 8.2 | 5 | 6.9 | 11.2 | 1.4 | 1.2 | 18.1
